We go through ten molecules from PubChem BioAssay (NCI).

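Exposure lasted 48 hours, with cells grown in 96-well plates and compounds tested at five concentrations. GI50: concentration for 50% inhibition of growth. TGI marks complete inhibition of growth.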 A value given as a limit tells only on which side of the number the result lay.

Some test systems named below: A498 renal; HCT-15 colon; HT29 colon; MALME-3M melanoma; MDA-MB-435; SF-268 CNS; SK-MEL-28 melanoma; SR leukemia; OVCAR-8 ovarian; MOLT-4 leukemia.
Common to all, as to test: NCI tumour cell line growth inhibition, 48 h

`CCCCCCCC/C=C/CCCCCCCC1=NC(C)(C)CN1C(C)C`: the GI50 with A498 renal is 2.04 µM; with HCT-15 colon, 1.51 µM; in the assay with HT29 colon, 0.576 µM; in the assay with MALME-3M melanoma, 1.63 µM; in the assay on MDA-MB-435 it was 1.6 µM; in the assay on SF-268 CNS, 1.7 µM. Besides, the GI50 in the assay with SK-MEL-28 melanoma is 1.53 µM; in the assay on SR leukemia, 1.02 µM. Moreover, the TGI stood at 5.21 µM in the assay on A498 renal; 2.9 µM in the assay on HCT-15 colon; 1.86 µM with HT29 colon; 3.27 µM with MALME-3M melanoma; 3.01 µM with MDA-MB-435; 3.07 µM in the assay with SF-268 CNS. In addition, the TGI with SK-MEL-28 melanoma amounted to 2.86 µM; with SR leukemia, 2.42 µM.

Consider `NC(CNO)C(=O)O` (stereo unspecified), for which the TGI in the assay on A498 renal, in the assay with HCT-15 colon, with HT29 colon, in the assay on MALME-3M melanoma, in the assay on MDA-MB-435 and in the assay with OVCAR-8 ovarian was over 100 µM throughout. Also, the TGI with SF-268 CNS and in the assay on SK-MEL-28 melanoma was over 100 µM in each case.

As to `c1cc(OCCN2CCCCCC2)ccc1CNc1ccc2nc(CCC3CCCCC3)[nH]c2c1`, the GI50 in the assay on A498 renal is 1.94 µM; in the assay with HCT-15 colon it was 1.59 µM; in the assay with HT29 colon, 1.3 µM; with MALME-3M melanoma it was 1.64 µM; in the assay with MDA-MB-435, 1.74 µM; in the assay on MOLT-4 leukemia, 1.69 µM. For the same molecule, the GI50 is 2.27 µM in the assay with OVCAR-8 ovarian, 2.42 µM in the assay on SF-268 CNS and 1.73 µM in the assay with SR leukemia. Also, the TGI is 4.95 µM with A498 renal; 3.67 µM in the assay on HCT-15 colon; 3.49 µM with HT29 colon; 3.1 µM in the assay with MALME-3M melanoma; 3.35 µM in the assay on MDA-MB-435; 6.74 µM in the assay on MOLT-4 leukemia. In addition, the TGI with OVCAR-8 ovarian amounted to 6.34 µM; in the assay with SF-268 CNS, 9.2 µM; in the assay with SR leukemia, 5.34 µM.

On to `O=C(O)c1ccc2c(c1Nc1ccccc1)C(=O)c1ccccc1C2=O`, for which the GI50 with HCT-15 colon was 72.8 µM; in the assay with HT29 colon, 98.4 µM; in the assay on MALME-3M melanoma it was 54.6 µM; with MDA-MB-435, 48.1 µM; with MOLT-4 leukemia, over 100 µM; with OVCAR-8 ovarian, 72.6 µM. The GI50 in the assay on SF-268 CNS is 34.6 µM; with SK-MEL-28 melanoma, over 100 µM; with SR leukemia, 41 µM. Besides, the TGI in the assay on HCT-15 colon, with HT29 colon, with MALME-3M melanoma, with MDA-MB-435, in the assay on MOLT-4 leukemia and with OVCAR-8 ovarian was over 100 µM throughout. Moreover, the TGI with SF-268 CNS, with SK-MEL-28 melanoma and with SR leukemia was over 100 µM each time.

On to `ClCc1ccc(-c2ccc(Cn3cnc4c(Cl)nc(Cl)nc43)cc2)cc1`, for which the GI50 in the assay on A498 renal is 2.33 µM; in the assay with HCT-15 colon, 1.67 µM; in the assay on HT29 colon, 1.72 µM; with MALME-3M melanoma, 7.06 µM; with MDA-MB-435, 2.74 µM; with MOLT-4 leukemia, 1.95 µM. The GI50 in the assay with SF-268 CNS is 2.01 µM; with SK-MEL-28 melanoma, 1.65 µM; in the assay on SR leukemia, 1.9 µM. Moreover, the TGI in the assay on A498 renal was 11.4 µM; with HCT-15 colon, 3.35 µM; in the assay on HT29 colon it was 3.31 µM; in the assay on MALME-3M melanoma it was 23.8 µM; in the assay on MDA-MB-435, 9.37 µM; with MOLT-4 leukemia, 6.97 µM. Besides, the TGI turned out to be 4.77 µM in the assay on SF-268 CNS, 3.1 µM with SK-MEL-28 melanoma and 6.43 µM in the assay on SR leukemia.

On to `Cc1c2c(nn1C(=O)c1nn(-c3ccc(Cl)cc3)cc1O)-c1ccccc1CC2`, for which the GI50 was 0.0181 µM with A498 renal; 0.0496 µM in the assay on HCT-15 colon; 0.226 µM in the assay on HT29 colon; 0.328 µM with MALME-3M melanoma; 0.0412 µM in the assay on MDA-MB-435; 0.0415 µM with MOLT-4 leukemia. Further, the GI50 with OVCAR-8 ovarian is 0.0523 µM; with SF-268 CNS it was 0.0469 µM; in the assay with SK-MEL-28 melanoma it was 0.293 µM. In addition, the TGI with A498 renal is 0.0612 µM; in the assay with HCT-15 colon, over 100 µM; with HT29 colon it was over 50.6 µM; with MALME-3M melanoma, over 74 µM; in the assay with MDA-MB-435 it was over 100 µM; in the assay on MOLT-4 leukemia, over 39.5 µM. For the same molecule, the TGI in the assay on OVCAR-8 ovarian, in the assay with SF-268 CNS and with SK-MEL-28 melanoma was over 100 µM each time.

For `COC(=O)CCC(NC(=O)C(C)NC(=O)COC1C(O)C(OC(=O)CCNc2c3ccccc3nc3cccc([N+](=O)[O-])c23)OC(OCc2ccccc2)C1NC(C)=O)C(N)=O` (stereo unspecified), the TGI in the assay with A498 renal was over 10 µM; in the assay with HCT-15 colon it was over 10 µM; in the assay on HT29 colon, over 10 µM; with MALME-3M melanoma it was 7.06 µM; in the assay with MDA-MB-435, over 10 µM; with MOLT-4 leukemia, over 10 µM. Further, the TGI with OVCAR-8 ovarian and in the assay on SF-268 CNS was over 10 µM in each case.

Regarding `O=C(O)c1ccc(O)c(N=Nc2cc(S(=O)(=O)O)c3ccccc3c2O)c1`, the TGI in the assay with A498 renal is over 100 µM; in the assay with HCT-15 colon, over 10 µM; with HT29 colon, over 100 µM; in the assay on MALME-3M melanoma, over 100 µM; in the assay with MOLT-4 leukemia it was over 100 µM; in the assay on OVCAR-8 ovarian it was over 100 µM. In addition, the TGI in the assay on SF-268 CNS is over 10 µM; with SK-MEL-28 melanoma, over 100 µM; in the assay with SR leukemia, over 100 µM.

On to `ClC1CCC2OOC1O2` (stereo unspecified), for which the TGI with A498 renal, in the assay with HCT-15 colon, in the assay with HT29 colon, in the assay on MALME-3M melanoma, with MOLT-4 leukemia and in the assay with OVCAR-8 ovarian was over 100 µM in each case. In addition, the TGI in the assay on SF-268 CNS, with SK-MEL-28 melanoma and in the assay with SR leukemia was over 100 µM in each case.

Consider `COC1C=CC(C(=O)[N+]2=Cc3[nH]c4ccccc4c3CC2)O1` (stereo unspecified), for which the TGI with A498 renal, in the assay with HCT-15 colon, with HT29 colon, in the assay with MALME-3M melanoma, in the assay with MOLT-4 leukemia and with OVCAR-8 ovarian was over 100 µM throughout. The results for the TGI in the assay on SF-268 CNS, with SK-MEL-28 melanoma and in the assay with SR leukemia were over 100 µM, over 100 µM and 82.7 µM, respectively.
